Calls of active or inactive are those of the source. No cut-off for these calls is given here.
Columns and labels:
L02 = assay: Cytotoxicity against human L02 cells assessed as reduction in cell viability incubated for 72 hrs by MTT assay; format: ADME, cell-based; conditions: L02, 72 h
[1] = molecular target: T1, Tyrosine-protein kinase BTK (Homo sapiens, UniProt Q06187); assay: Inhibition of BTK in human Daudi cells assessed as reduction in BTK Y223 phosphorylation incubated for 1 hr by Western blot analysis; format: cell-based; conditions: dose 0.03-10 µM
T1 sequence (Q06187 whole entry): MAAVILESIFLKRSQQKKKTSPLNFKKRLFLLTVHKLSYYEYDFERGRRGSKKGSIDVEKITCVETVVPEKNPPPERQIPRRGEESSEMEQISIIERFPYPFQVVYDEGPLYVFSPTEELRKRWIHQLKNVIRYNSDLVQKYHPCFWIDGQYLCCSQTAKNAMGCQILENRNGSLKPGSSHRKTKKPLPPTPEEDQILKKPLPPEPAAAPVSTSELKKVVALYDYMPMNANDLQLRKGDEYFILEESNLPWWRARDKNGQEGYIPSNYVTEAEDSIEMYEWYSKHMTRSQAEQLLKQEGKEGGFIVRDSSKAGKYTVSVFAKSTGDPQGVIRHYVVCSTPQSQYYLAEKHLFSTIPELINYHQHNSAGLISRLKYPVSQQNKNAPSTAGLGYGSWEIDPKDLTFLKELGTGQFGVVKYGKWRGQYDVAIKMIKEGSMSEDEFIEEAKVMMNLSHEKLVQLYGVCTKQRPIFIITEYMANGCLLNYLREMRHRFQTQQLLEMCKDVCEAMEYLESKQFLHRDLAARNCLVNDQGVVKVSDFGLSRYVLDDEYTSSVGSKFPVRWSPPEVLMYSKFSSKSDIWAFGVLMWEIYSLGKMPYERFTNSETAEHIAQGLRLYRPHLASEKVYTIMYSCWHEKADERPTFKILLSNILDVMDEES

[2] = molecular target: T1, Tyrosine-protein kinase BTK; assay: Inhibition of BTK in human U2932 cells assessed as reduction in BTK Y223 phosphorylation incubated for 1 hr by Western blot analysis; format: cell-based; conditions: dose 0.03-10 µM
[3] = molecular target: T1, Tyrosine-protein kinase BTK; assay: Inhibition of BTK in human Daudi cells assessed as reduction in BTK Y551 phosphorylation at 0.03 to 10 uM incubated for 1 hr by Western blot analysis; format: cell-based; conditions: dose 0.03-10 µM
[4] = molecular target: T1, Tyrosine-protein kinase BTK; assay: Inhibition of BTK in human U2932 cells assessed as reduction in BTK Y551 phosphorylation at 0.03 to 10 uM incubated for 1 hr by Western blot analysis; format: cell-based; conditions: dose 0.03-10 µM
[5] = molecular target: T1, Tyrosine-protein kinase BTK; assay: Inhibition of BTK in human Raji cells assessed as reduction in BTK Y551 phosphorylation at 0.03 to 10 uM incubated for 1 hr by Western blot analysis; format: cell-based; conditions: dose 0.03-10 µM
[6] = Cmax in Sprague-Dawley rat at 3 mg/kg, iv measured up to 24 hrs by LC-MS/MS analysis; format: ADME, organism-based; set-up: route intravenous, dose 3 mg/kg, time <=24; conditions: in vivo
[7] = Clearance in Sprague-Dawley rat at 3 mg/kg, iv measured up to 24 hrs by LC-MS/MS analysis; format: ADME, organism-based; conditions: in vivo
[8] = Tmax in Sprague-Dawley rat at 3 mg/kg, po measured up to 24 hrs by LC-MS/MS analysis; format: ADME, organism-based; conditions: in vivo
[9] = Metabolic stability in human liver microsomes assessed as half life at 100 uM/L measured upto 90 mins by LC-MS/MS analysis; format: ADME, Microsome
[10] = Metabolic stability in rat liver microsomes assessed as half life at 100 uM/L measured upto 90 mins by LC-MS/MS analysis; format: ADME, Microsome
[11] = Metabolic stability in mouse liver microsomes assessed as half life at 100 uM/L measured upto 90 mins by LC-MS/MS analysis; format: ADME, Microsome
[12] = Metabolic stability in monkey liver microsomes assessed as half life at 100 uM/L measured upto 90 mins by LC-MS/MS analysis; format: ADME, Macaca mulatta, Microsome; conditions: rhesus monkey
[13] = Metabolic stability in rat liver microsomes assessed as intrinsic clearance at 100 uM/L measured upto 90 mins by LC-MS/MS analysis; format: ADME, Microsome; conditions: 1.5 h
[14] = Metabolic stability in monkey liver microsomes assessed as intrinsic clearance at 100 uM/L measured upto 90 mins by LC-MS/MS analysis; format: ADME, Macaca mulatta, Microsome; conditions: rhesus monkey, 1.5 h
[15] = molecular target: Receptor tyrosine-protein kinase erbB-2 (Homo sapiens, UniProt P04626); assay: Inhibition of ErBB2 (unknown origin)
[16] = molecular target: Calcium/calmodulin-dependent protein kinase type 1 (Homo sapiens, UniProt Q14012); assay: Inhibition of CAMK1 (unknown origin)
[17] = molecular target: Calcium/calmodulin-dependent protein kinase type II subunit beta (Homo sapiens, UniProt Q13554); assay: Inhibition of CAMK2 (unknown origin)
[18] = molecular target: Calcium/calmodulin-dependent protein kinase kinase 1 (Homo sapiens, UniProt Q8N5S9); assay: Inhibition of CAMKK1 (unknown origin)
Chain of Calcium/calmodulin-dependent protein kinase kinase 1 (Q8N5S9 whole entry): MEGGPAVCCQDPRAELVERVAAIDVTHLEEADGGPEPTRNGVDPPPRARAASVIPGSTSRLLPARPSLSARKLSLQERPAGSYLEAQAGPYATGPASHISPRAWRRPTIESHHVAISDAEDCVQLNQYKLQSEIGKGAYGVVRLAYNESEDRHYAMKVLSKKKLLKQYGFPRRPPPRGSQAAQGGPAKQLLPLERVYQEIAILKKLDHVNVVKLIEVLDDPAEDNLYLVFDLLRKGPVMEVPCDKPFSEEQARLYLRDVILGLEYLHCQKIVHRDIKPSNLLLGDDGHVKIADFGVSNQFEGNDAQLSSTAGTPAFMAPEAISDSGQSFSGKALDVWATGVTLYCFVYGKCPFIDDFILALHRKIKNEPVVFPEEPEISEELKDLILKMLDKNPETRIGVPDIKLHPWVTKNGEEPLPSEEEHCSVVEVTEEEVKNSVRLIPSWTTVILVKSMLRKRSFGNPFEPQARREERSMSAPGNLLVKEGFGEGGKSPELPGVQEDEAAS

[19] = molecular target: Tyrosine-protein kinase CSK (Homo sapiens, UniProt P41240); assay: Inhibition of CSK (unknown origin)
Chain of Tyrosine-protein kinase CSK (P41240 whole entry): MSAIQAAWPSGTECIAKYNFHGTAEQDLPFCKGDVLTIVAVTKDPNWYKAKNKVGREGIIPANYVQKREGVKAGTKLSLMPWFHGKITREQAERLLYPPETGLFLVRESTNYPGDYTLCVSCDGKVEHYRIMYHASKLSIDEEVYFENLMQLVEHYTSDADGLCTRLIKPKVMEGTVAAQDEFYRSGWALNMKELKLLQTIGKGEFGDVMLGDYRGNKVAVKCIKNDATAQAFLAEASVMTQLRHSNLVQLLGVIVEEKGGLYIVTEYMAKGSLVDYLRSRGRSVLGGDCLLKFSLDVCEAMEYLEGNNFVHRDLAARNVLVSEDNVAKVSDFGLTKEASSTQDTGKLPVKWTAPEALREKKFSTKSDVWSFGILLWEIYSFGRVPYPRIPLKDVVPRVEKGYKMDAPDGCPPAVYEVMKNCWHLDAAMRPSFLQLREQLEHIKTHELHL

[20] = Inhibition of GSK3alpha/GSK3beta (unknown origin); set-up: species or system Homo sapiens
[21] = molecular target: Ribosomal protein S6 kinase alpha-3 (Homo sapiens, UniProt P51812); assay: Inhibition of recombinant human RSK2 using Histone H3 full length as substrate incubate for 10 mins by LANCE assay
[22] = molecular target: Proto-oncogene tyrosine-protein kinase receptor Ret (Homo sapiens, UniProt P07949); assay: Inhibition of RET (unknown origin)
[23] = Inhibition of PKC (unknown origin); set-up: species or system Homo sapiens
[24] = molecular target: Mitogen-activated protein kinase kinase kinase 2 (Homo sapiens, UniProt Q9Y2U5); assay: Inhibition of MEKK2 (unknown origin)
[25] = molecular target: Mitogen-activated protein kinase kinase kinase 3 (Homo sapiens, UniProt Q99759); assay: Inhibition of MEKK3 (unknown origin)
[26] = molecular target: Dual specificity mitogen-activated protein kinase kinase 6 (Homo sapiens, UniProt P52564); assay: Inhibition of MKK6 (unknown origin)
[27] = molecular target: Ribosomal protein S6 kinase beta-1 (Homo sapiens, UniProt P23443); assay: Inhibition of recombinant human p70S6K using CREBtide as substrate incubate for 15 mins by LANCE assay
[28] = molecular target: Tyrosine-protein kinase Fgr (Homo sapiens, UniProt P09769); assay: Inhibition of FGR (unknown origin)
[29] = molecular target: Macrophage colony-stimulating factor 1 receptor (Homo sapiens, UniProt P07333); assay: Inhibition of recombinant human FMS using Ulight-TK peptide as substrate incubate for 15 mins by LANCE assay
Chain of Macrophage colony-stimulating factor 1 receptor (P07333 whole entry): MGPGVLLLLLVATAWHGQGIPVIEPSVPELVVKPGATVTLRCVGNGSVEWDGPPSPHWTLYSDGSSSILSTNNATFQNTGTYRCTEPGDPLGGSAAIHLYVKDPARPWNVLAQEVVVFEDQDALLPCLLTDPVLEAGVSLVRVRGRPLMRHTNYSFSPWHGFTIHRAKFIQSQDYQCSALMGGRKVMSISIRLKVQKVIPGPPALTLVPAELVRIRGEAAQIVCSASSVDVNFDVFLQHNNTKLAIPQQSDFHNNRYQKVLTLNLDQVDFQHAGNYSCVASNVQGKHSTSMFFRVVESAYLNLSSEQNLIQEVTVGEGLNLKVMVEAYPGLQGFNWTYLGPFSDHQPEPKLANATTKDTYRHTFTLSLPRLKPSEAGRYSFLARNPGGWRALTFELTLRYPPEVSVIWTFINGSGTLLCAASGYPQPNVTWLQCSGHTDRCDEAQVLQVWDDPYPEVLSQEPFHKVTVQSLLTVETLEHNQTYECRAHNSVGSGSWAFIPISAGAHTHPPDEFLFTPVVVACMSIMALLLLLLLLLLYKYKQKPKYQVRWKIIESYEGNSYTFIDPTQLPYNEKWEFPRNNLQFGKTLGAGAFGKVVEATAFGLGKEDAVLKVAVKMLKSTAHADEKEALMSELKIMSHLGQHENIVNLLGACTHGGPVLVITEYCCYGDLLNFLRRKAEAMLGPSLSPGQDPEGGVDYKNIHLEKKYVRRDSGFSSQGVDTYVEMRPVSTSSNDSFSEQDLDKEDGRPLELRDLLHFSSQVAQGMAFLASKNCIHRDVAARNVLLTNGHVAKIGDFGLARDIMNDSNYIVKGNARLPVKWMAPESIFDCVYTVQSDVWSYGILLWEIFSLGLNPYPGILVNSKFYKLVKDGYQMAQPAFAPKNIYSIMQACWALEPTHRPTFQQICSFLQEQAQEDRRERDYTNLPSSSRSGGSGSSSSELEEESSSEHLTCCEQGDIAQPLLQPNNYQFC

[30] = molecular target: Receptor-type tyrosine-protein kinase FLT3 (Homo sapiens, UniProt P36888); assay: Inhibition of FLT3 (unknown origin)
[31] = molecular target: Tyrosine-protein kinase Yes (Homo sapiens, UniProt P07947); assay: Inhibition of recombinant human YES using biotinyl-beta Abeta-Abeta AYQAEENTYDEYEN as substrate incubate for 30 mins by LANCE assay
[32] = molecular target: Tyrosine-protein kinase Fyn (Homo sapiens, UniProt P06241); assay: Inhibition of recombinant human FYN using biotinyl-beta Abeta-Abeta AYQAEENTYDEYEN as substrate incubate for 60 mins by LANCE assay
Chain of Tyrosine-protein kinase Fyn (P06241 whole entry): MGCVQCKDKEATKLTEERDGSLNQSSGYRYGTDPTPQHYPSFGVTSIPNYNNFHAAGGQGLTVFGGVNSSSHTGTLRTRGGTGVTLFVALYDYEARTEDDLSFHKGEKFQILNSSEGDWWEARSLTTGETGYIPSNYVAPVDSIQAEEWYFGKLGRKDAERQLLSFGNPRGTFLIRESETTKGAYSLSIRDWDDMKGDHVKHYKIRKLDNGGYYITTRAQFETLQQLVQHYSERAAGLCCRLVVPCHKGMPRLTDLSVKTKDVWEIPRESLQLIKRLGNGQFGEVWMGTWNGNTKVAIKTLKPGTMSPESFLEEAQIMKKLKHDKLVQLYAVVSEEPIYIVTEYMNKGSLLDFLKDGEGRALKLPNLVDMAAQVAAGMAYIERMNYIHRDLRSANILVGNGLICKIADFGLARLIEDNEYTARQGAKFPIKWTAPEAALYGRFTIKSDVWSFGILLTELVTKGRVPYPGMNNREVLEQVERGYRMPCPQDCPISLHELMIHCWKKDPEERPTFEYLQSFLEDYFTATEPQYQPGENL

[33] = molecular target: Proto-oncogene tyrosine-protein kinase Src (Homo sapiens, UniProt P12931); assay: Inhibition of recombinant human SRC using Ulight-Poly GAT[EAY(1:1:1)]n as substrate incubate for 10 mins by LANCE assay
[34] = molecular target: Ribosomal protein S6 kinase alpha-6 (Homo sapiens, UniProt Q9UK32); assay: Inhibition of RSK4 (unknown origin)
Chain of Ribosomal protein S6 kinase alpha-6 (Q9UK32 whole entry): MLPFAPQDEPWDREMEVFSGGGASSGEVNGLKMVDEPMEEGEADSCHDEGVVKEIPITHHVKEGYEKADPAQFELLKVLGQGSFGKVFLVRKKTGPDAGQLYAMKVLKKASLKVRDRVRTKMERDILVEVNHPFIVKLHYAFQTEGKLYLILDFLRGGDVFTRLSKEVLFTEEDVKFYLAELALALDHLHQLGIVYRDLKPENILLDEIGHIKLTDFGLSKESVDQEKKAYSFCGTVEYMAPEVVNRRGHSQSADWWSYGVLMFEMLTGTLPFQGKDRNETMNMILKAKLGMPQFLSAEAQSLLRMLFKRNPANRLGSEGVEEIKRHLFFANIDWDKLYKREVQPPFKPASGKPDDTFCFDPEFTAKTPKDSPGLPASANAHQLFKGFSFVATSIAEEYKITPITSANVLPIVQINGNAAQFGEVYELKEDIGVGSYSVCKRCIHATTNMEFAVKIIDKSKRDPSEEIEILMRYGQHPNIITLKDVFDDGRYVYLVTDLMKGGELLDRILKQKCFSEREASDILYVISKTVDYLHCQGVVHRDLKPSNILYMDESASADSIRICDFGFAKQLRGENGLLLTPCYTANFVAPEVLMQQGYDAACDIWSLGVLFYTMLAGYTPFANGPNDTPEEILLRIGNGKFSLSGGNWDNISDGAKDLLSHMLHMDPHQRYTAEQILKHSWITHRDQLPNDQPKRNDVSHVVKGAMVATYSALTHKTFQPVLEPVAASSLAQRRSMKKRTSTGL

[35] = molecular target: High affinity nerve growth factor receptor (Homo sapiens, UniProt P04629); assay: Inhibition of recombinant human TRKa using Ulight-Poly GAT[EAY(1:1:1)]n as substrate incubate for 10 mins by LANCE assay
[36] = molecular target: Epidermal growth factor receptor (Homo sapiens, UniProt P00533)
Chain of Epidermal growth factor receptor (P00533 whole entry): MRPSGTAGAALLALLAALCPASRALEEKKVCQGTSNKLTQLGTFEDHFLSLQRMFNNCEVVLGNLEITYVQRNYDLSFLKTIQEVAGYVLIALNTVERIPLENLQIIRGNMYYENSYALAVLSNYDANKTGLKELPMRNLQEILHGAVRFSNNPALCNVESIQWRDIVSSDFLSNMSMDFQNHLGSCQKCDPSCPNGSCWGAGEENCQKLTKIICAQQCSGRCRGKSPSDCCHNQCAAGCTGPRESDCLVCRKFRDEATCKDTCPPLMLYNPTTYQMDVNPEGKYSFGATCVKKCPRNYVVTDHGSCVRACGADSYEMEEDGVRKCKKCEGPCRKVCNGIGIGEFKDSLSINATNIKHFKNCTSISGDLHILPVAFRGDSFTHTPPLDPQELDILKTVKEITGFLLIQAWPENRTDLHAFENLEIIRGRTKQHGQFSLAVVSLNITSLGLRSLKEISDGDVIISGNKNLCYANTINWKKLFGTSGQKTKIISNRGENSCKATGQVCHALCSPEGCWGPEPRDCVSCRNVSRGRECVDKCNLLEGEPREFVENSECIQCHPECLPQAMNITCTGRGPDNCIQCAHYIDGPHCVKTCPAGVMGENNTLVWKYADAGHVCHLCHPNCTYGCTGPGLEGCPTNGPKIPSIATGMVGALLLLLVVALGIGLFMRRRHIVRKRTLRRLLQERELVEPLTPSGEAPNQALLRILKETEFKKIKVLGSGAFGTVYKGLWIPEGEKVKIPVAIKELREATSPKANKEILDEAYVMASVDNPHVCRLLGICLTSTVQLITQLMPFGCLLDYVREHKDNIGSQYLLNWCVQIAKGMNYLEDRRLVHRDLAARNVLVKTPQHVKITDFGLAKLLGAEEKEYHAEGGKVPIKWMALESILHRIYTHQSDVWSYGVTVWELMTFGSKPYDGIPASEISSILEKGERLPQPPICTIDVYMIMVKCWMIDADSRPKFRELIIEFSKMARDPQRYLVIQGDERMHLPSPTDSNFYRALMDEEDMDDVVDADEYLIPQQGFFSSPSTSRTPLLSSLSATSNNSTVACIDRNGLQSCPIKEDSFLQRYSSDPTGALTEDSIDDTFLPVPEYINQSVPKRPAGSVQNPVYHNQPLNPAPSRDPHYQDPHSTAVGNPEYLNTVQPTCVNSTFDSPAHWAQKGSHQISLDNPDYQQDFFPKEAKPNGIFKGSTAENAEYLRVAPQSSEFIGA

[37] = Toxicity in BALB/c mouse assessed as mouse survival at 2 g/kg, po measured after 7 days of administration; conditions: in vivo, 168 h
[38] = Toxicity in BALB/c mouse assessed as effect on lung at 2 g/kg, po measured after 7 days of administration by histopathological analysis; conditions: in vivo, 168 h
[39] = Toxicity in BALB/c mouse assessed as effect on heart at 2 g/kg, po measured after 7 days of administration by histopathological analysis; conditions: in vivo, 168 h
[40] = Toxicity in BALB/c mouse assessed as effect on kidney at 2 g/kg, po measured after 7 days of administration by histopathological analysis; conditions: in vivo, 168 h

With `C=CC(=O)N1CCC(Cn2cc(-c3ccc4c(c3)OCO4)c3c(N)ncnc32)CC1` the IC50 (L02) was 31.3 µM, the inhibition [1] was “Dose-dependent effect” and the inhibition [2] was “Dose-dependent effect”. For the same compound, the inhibition [3] was “inactive”, the inhibition [4] was “inactive” and the inhibition [5] was “inactive”. The Cmax [6] was 3130 ng/mL, the CL [7] was 137 mL/min/kg and the Tmax [8] was 0.96 h. It also gave a half-life at 100 µM [9] of 5.5 h, a half-life at 100 µM [10] of 3.12 h and a half-life at 100 µM [11] of 4.28 h. For the same compound, the half-life at 100 µM [12] was 2.82 h, the CLH [13] was 7.4 µL/min/mg and the CLH [14] was 8.2 µL/min/mg. The IC50 [15] was greater than 10 µM, the IC50 [16] was greater than 10 µM and the IC50 [17] was greater than 10 µM. It also gave an IC50 [18] greater than 10 µM, an IC50 [19] greater than 10 µM and an IC50 [20] greater than 10 µM. For the same compound, the IC50 [21] was greater than 10 µM, the IC50 [22] was 0.64 µM and the IC50 [23] was greater than 10 µM. The IC50 [24] was greater than 10 µM, the IC50 [25] was greater than 10 µM and the IC50 [26] was greater than 10 µM. For the same compound, the IC50 [27] was greater than 10 µM, the IC50 [28] was 0.657 µM and the IC50 [29] was greater than 10 µM. For the same compound, the IC50 [30] was greater than 10 µM, the IC50 [31] was 0.146 µM and the IC50 [32] was 1.01 µM. It also gave an IC50 [33] of 1 µM, an IC50 [34] greater than 10 µM and an IC50 [35] greater than 10 µM. For the same compound, the IC50 [36] was greater than 10 µM, the Activity [37] was “Non-Toxic” and the Activity [38] was “Non-Toxic”. The Activity [39] was “Non-Toxic” and the Activity [40] was “Non-Toxic”.

Reference: ChEMBL document CHEMBL4715815, “Design, synthesis and biological evaluation of 7H-pyrrolo[2,3-d]pyrimidin-4-amine derivatives as selective Btk inhibitors with improved pharmacokinetic properties for the treatment of rheumatoid arthritis” (Eur J Med Chem, 2018)
